In BindingDB's records for doi:10.1021/jm100394y (Amgen, 2010):

assay: Inhibition of aurora B in human HeLa cells assessed as increase of >= 4N DNA level after 24 hrs by Hoechst staining

Row | Structure (SMILES) | EC50
1 | CNc1nccc(-c2cccnc2Oc2ccc(NC(=O)c3ccccc3Nc3ccc(F)cc3)cc2)n1 [2-(4-Fluorophenylamino)-N-(4-(3-(2-(methylamino)pyrimidin-4-yl)pyridin-2-yloxy)phenyl)benzamide] | 28 nM
2 | CNc1nccc(-c2cccnc2Oc2ccc(NC(=O)c3cccc(Cl)c3)cc2C)n1 [3-Chloro-N-(3-methyl-4-(3-(2-(methylamino)pyrimidin-4-yl)-pyridin-2-yloxy)phenyl)benzamide] | > 1200 nM
3 | CNc1nccc(-c2cccnc2Oc2ccc(Nc3nnc(-c4ccc(F)cc4)c4ccccc34)cc2)n1 [4-(4-Fluorophenyl)-N-(4-(3-(2-(methylamino)pyrimidin-4-yl)-pyridin-2-yloxy)phenyl)phthalazin-1-amine] | 24 nM
4 | CNc1nccc(-c2cccnc2Oc2ccc(NC(=O)c3ccc(Cl)cc3)cc2C)n1 [4-Chloro-N-(3-methyl-4-(3-(2-(methylamino)pyrimidin-4-yl)-pyridin-2-yloxy)phenyl)benzamide] | > 1200 nM
5 | CNc1nccc(-c2cccnc2Oc2ccc(NC(=O)c3cc(F)ccc3Nc3ccccc3)cc2)n1 [5-Fluoro-N-(4-(3-(2-(methylamino)pyrimidin-4-yl)pyridin-2-yloxy)phenyl)-2-(phenylamino)benzamide] | 20 nM
6 | CNc1nccc(-c2cccnc2Oc2ccc(NC(=O)c3ccccc3Nc3ccccc3)c(C)c2)n1 [N-(2-Methyl-4-(3-(2-(methylamino)pyrimidin-4-yl)pyridin-2-yloxy)phenyl)-2-(phenylamino)benzamide] | 1450 nM
7 | CNc1nccc(-c2cccnc2Oc2ccc(NC(=O)c3ccccc3Nc3ccccc3)cc2C)n1 [N-(3-Methyl-4-(3-(2-(methylamino)pyrimidin-4-yl)pyridin-2-yloxy)phenyl)-2-(phenylamino)benzamide] | 89 nM
8 | CNc1nccc(-c2cccnc2Oc2ccc(NC(=O)c3ccccc3Oc3ccccc3)cc2C)n1 [N-(3-Methyl-4-(3-(2-(methylamino)pyrimidin-4-yl)pyridin-2-yloxy)phenyl)-2-phenoxybenzamide] | > 1200 nM
9 | CNc1nccc(-c2cccnc2Oc2ccc(NC(=O)c3cccc(C(F)(F)F)c3)cc2C)n1 [N-(3-Methyl-4-(3-(2-(methylamino)pyrimidin-4-yl)pyridin-2-yloxy)phenyl)-3-(trifluoromethyl)benzamide] | > 1200 nM
10 | CNc1nccc(-c2cccnc2Oc2ccc(NC(=O)c3cccc(Oc4ccccc4)c3)cc2C)n1 [N-(3-Methyl-4-(3-(2-(methylamino)pyrimidin-4-yl)pyridin-2-yloxy)phenyl)-3-phenoxybenzamide] | > 1200 nM
11 | CNc1nccc(-c2cccnc2Oc2ccc(NC(=O)c3ccccc3Nc3ccccc3)cc2)n1 [N-(4-(3-(2-(Methylamino)pyrimidin-4-yl)pyridin-2-yloxy)phenyl)-2-(phenylamino)benzamide] | 15 nM
12 | CNc1nccc(-c2cccnc2Oc2ccc(Nc3nnc(-c4ccccc4)c4ccccc34)cc2)n1 [N-(4-(3-(2-(Methylamino)pyrimidin-4-yl)pyridin-2-yloxy)phenyl)-4-phenylphthalazin-1-amine] | 15 nM
